We go through nine molecules from publication PMC4519322 (PLoS Pathogens, 2015).

Like-named read-outs stand apart in the source and are kept apart here. Where only a bound is given, the exact number is not on record here.

The conditions of series [1]: in vivo; cited from earlier work.
Series [2] concerns nuclear export of NP-mRFP-Flag. Briefly: in vitro nuclear export assay, digitonin-permeabilized HeLa cells. The format is cell-based. The conditions noted are these: with HeLa cell lysate, 42% with lysate alone. How it is done:
HeLa cells were attached to glass cover slips at 37°C for 24 h and then transiently transfected with NP-mRFP-Flag/pCAGGS. After 48 h, cells were washed twice with cold transport buffer (20 mM HEPES (pH 7.4), 110 mM potassium acetate, 2 mM magnesium acetate, 1 mM EGTA (pH 7.4), 2 mM DTT, 1 μg/mL aprotinin, 1 μg/mL leupeptin, and 1 μg/mL pepstatin) and permeabilized with digitonin (50 μg/mL; Sigma) in transport buffer for 5 min on ice. The cells were then washed with cold transport buffer and incubated with apyrase (10 U/mL; Sigma) for 5 min on ice. After washing twice with cold transport buffer, the cells were incubated in cold transport buffer for 10 min on ice before addition of a the reaction mixture (40 μg HeLa cell lysate, 10 mg/mL bovine serum albumin (BSA), 10 mM ATP, 5 mM creatine phosphate, 0.64 U creatine kinase) containing (or not) the test compounds. The mixture was the incubated at 30°C for 1 h. After washing three times with cold transport buffer, mRFP fluorescence was observed under a confocal laser scanning microscope (FV 1000; Olympus). The fluorescence intensity in the nuclei was analyzed with MetaMorph software (Molecular Devices Inc., Downingtown, PA). The fluorescence intensity of NP-mRFP-Flag was quantified in >100 nuclei in each of three independent experiments.

The next series deals with CRM1 binding to NP (Influenza A virus, UniProt P15682). The format is biochemical.
For a further series, the system named is A/WSN/1933 (H1N1) virus. In words: microbe, parasite or virus in culture. The conditions noted are these: for IC50 / IC90: Influenza A virus. It is filed as cell-based, influenza A virus.
The nature of another series: in vitro. The conditions noted are these: dog, CC50 (50% cytotoxicity concentration), MDCK cells, WST-1 assay. On the technique in general: Tetrazolium assays rely on reduction of a dye to a coloured formazan, in cell work by metabolically active cells.
Series [3] concerns recombinant wild-type WSN (rWSN). Briefly: microbe, parasite or virus in culture. The format is cell-based. The conditions noted are these: Influenza A virus, H1N1 / WSN, read-out: IC50 (μM) WT rWSM (H1N1).
The subject of series [4] is influenza A/WSN/1933 (H1N1) virus. Details: species or system Balb/c mice. The conditions noted are these: mouse, in vivo.
A further series has as its target vRNP activity (Influenza A virus, UniProt P15682). It is filed as cell-based, influenza A/WSN/1933 (H1N1).
The target in the next series is NP (Influenza A virus, UniProt P15682). The format is cell-based, A/WSN/1933 (H1N1).
The next series relates to A/Udorn/307/1972 (H3N2). In words: microbe, parasite or virus in culture. It is filed as cell-based. Particulars: Influenza A virus, H3N2, MDCK.
The test system of series [5] is A/Ck/yamaguchi/7/2004 (H5N1). In words: microbe, parasite or virus in culture. It is filed as cell-based. Particulars: Influenza A virus, H5N1, MDCK.
For another series, the system named is A/Anhui/1/2013(H7N9). In words: microbe, parasite or virus in culture. The conditions noted are these: Influenza A virus, H7N9, MDCK. It is filed as cell-based.
Series [6] deals with A/Massachusetts/3740/1965 (H6N2). In words: microbe, parasite or virus in culture. It is filed as cell-based. The conditions noted are these: Influenza A virus, H6N2, MDCK.
Series [7] deals with A/Ontario/6118/1968 (H8N4). In words: microbe, parasite or virus in culture. The format is cell-based. Particulars: Influenza A virus, H8N4, MDCK.
The subject of a further series is A/Germany/N/1949 (H10N7). In words: microbe, parasite or virus in culture. It is filed as cell-based. Particulars: Influenza A virus, MDCK.
The test system of a further series is A/England/1/1956 (H11N6). Briefly: microbe, parasite or virus in culture. The format is cell-based. Particulars: Influenza A virus, MDCK.
Series [8] relates to A/Alberta/60/1976 (H12N5). Briefly: microbe, parasite or virus in culture. The conditions noted are these: Influenza A virus, MDCK. It is filed as cell-based.
Series [9] deals with A/Astrakhan/263/1982 (H14N15). In words: microbe, parasite or virus in culture. It is filed as cell-based. Particulars: Influenza A virus, MDCK.
A further series concerns A/Tex/131 (H3N2). Briefly: microbe, parasite or virus in culture. The format is cell-based. Particulars: Influenza A virus, H3N2, MDCK.
For series [10], the system named is A/California/7/2009 virus (H1N1). Briefly: microbe, parasite or virus in culture. It is filed as cell-based. The conditions noted are these: Influenza A virus, H1N1, MDCK.
Series [11] has as its system vRNA encoding the PB2 subunit. The format is cell-based, A/WSN/1933 (H1N1).
The test system of another series is viral protein expression. It is filed as cell-based.
The next series deals with NP-Flag (Influenza A virus, UniProt P15682). It is filed as binding.
The target of a further series is NP-RNA interaction (Influenza A virus, UniProt P15682). It is filed as biochemical.
A further series addresses NP-NP interaction (Influenza A virus, UniProt P15682). It is filed as biochemical.
For series [12], the target named is vRNA-induced NP oligomerization (Influenza A virus, UniProt P15682). It is filed as biochemical.
Series [13] concerns Influenza A/WSN/1933 (H1N1) virus. It is filed as cell-based.
Series [14] has as its system virus life cycle in MDCK cells. It is filed as cell-based.
The conditions of series [15]: mouse plasma.
The next series is described as follows: in vivo. The conditions noted are these: Balb/c, mouse, 10 mg/kg.
Where [16] appears, read: MDCK, read-out: IC50 (SAR analysis of RK424).

CRM1 binding to NP, sequence (P15682 whole entry, looked up): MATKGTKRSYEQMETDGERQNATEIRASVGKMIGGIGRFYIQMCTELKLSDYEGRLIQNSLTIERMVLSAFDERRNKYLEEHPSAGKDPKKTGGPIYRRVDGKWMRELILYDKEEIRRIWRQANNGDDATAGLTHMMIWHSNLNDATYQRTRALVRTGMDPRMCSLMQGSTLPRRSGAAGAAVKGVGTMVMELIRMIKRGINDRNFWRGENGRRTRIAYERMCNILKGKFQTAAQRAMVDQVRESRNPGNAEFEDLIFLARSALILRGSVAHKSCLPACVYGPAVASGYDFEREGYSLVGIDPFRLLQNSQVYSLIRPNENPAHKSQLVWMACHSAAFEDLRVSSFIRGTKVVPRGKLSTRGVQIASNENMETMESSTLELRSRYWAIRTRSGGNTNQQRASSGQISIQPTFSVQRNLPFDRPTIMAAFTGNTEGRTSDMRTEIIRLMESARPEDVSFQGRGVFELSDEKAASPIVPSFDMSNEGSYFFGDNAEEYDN
NP, sequence (P15682 whole entry, looked up): as above
vRNP activity, sequence (P15682 whole entry, looked up): as above
NP-Flag, sequence (P15682 whole entry, looked up): as above
NP-NP interaction, sequence (P15682 whole entry, looked up): as above
NP-RNA interaction, sequence (P15682 whole entry, looked up): as above
vRNA-induced NP oligomerization, sequence (P15682 whole entry, looked up): as above

In the case of `NC(=O)c1nc(F)c[nH]c1=O` [Analog T-705, favipiravir], in series [1], the “recovery from morbidity, of that of the negative control group” value is given as 20% and the “viral titers in the lung” value is recorded as 3.50 log10 PFU/mL.

Take `CCC(=C/[C@H](C)C/C=C/C(C)=C/[C@@H](C)C(=O)[C@@H](C)[C@H](O)[C@@H](C)C/C(C)=C/C(=O)O)/C=C/[C@@H]1OC(=O)C=C[C@@H]1C` [leptomycin B, reference compound]: the “mRFP fluorescence intensity in the nucleus, % of buffer-treated cells” value in series [2] (concentration not given) came to 97%. Besides, the “binding of CRM1 to NP-Flag beads” value on CRM1 binding to NP is “binding was inhibited”.

As for `NC(=O)c1cc(-c2ccc(-c3ccccc3)cc2)nc2ccccc12` [Analog #1], the “antiviral effect relative to RK424 (SAR, in words)” value (“antiviral effect relative to RK424” below) with A/WSN/1933 (H1N1) virus is given as “partial reduction in the antiviral effect”. The IC50 with A/WSN/1933 (H1N1) virus (setting [16]) was determined as 10100 ± 2070 nM. The CC50 (usually the concentration at which the toxic effect on the cells reaches its halfway point) in the series “in vitro” was above 10000 nM.

For the molecule `O=C(O)c1cc(-c2ccc(Oc3ccccc3)cc2)nc2ccccc12` [Analog #4], in the series on A/WSN/1933 (H1N1) virus, the “antiviral effect relative to RK424” value was “antiviral effect comparable with that of RK424”. For the same molecule, the IC50 with A/WSN/1933 (H1N1) virus (setting [16]) was determined as 430 ± 150 nM. Further, in the series “in vitro”, the CC50 is above 10000 nM.

As to `Cc1onc(-c2ccccc2)c1C(=O)N1CCN(c2ccc([N+](=O)[O-])cc2Cl)CC1` [Nucleozin, nucleozin, reference compound], the IC50 in series [3] amounted to 0.2 ± 0.03 µM.

With `O=C(O)c1ccnc(-c2ccc(-c3ccccc3)cc2)c1` [Analog #3], the “antiviral effect relative to RK424” value in the series with A/WSN/1933 (H1N1) virus is reported as “complete loss of antiviral activity”. Besides, the IC50 with A/WSN/1933 (H1N1) virus (setting [16]) was above 30000 nM. In addition, the CC50 in “in vitro” was above 10000 nM.

In the case of `CCOC(=O)C1=C[C@@H](OC(CC)CC)[C@H](NC(C)=O)[C@@H](N)C1` [oseltamivir phosphate, reference compound], the “body weight change (in words)” value in [4] is “no weight loss”. Further, at vRNP activity, the “luciferase activity (vRNP activity)” value was “did not significantly inhibit luciferase activity”. In addition, the “NP localization in virus-infected HeLa cells” value at NP was “NP localized in both the nucleus and cytoplasm”.

Regarding `O=C(O)c1cc(N2CCN(c3ccccc3)CC2)nc2ccccc12` [Analog #2], in the series with A/WSN/1933 (H1N1) virus, the “antiviral effect relative to RK424” value is reported as “complete loss of antiviral activity”. The IC50 in the series on A/WSN/1933 (H1N1) virus (setting [16]) was above 30000 nM. In the series “in vitro”, this molecule gave a CC50 above 10000 nM.

`O=C(O)c1cc(-c2ccc(-c3ccccc3)cc2)nc2ccccc12` [RK424]: the “plaque formation (number and size)” value with A/WSN/1933 (H1N1) virus is reported as “reduction in the number, but not the size, of viral plaques”. For the same molecule, the IC50 in the series with A/WSN/1933 (H1N1) virus (MDCK) is 480 ± 190 nM; in the series on A/WSN/1933 (H1N1) virus (read-out: IC50 expressed as ng/mL) it was 163 ng/mL; with A/Udorn/307/1972 (H3N2) it was 490 ± 190 nM; in [5] it was 570 ± 40 nM; with A/Anhui/1/2013(H7N9) it was 600 ± 120 nM; in series [6], 590 ± 90 nM. Besides, the IC50 in series [7] came to 490 ± 40 nM; in the series with A/Germany/N/1949 (H10N7), 580 ± 140 nM; in the series on A/England/1/1956 (H11N6), 570 ± 160 nM; in series [8], 620 ± 230 nM; in series [9], 420 ± 60 nM; with A/Tex/131 (H3N2), 590 ± 130 nM. The IC50 in series [10] was 400 ± 70 nM; in [3] it was 0.38 ± 0.04 µM. Moreover, the IC90 with A/WSN/1933 (H1N1) virus (MDCK) worked out at 1190 ± 360 nM; in the series with A/WSN/1933 (H1N1) virus (read-out: IC90 expressed as ng/mL), 390 ng/mL; with A/Udorn/307/1972 (H3N2), 1230 ± 240 nM; in series [5] it was 930 ± 20 nM; in the series on A/Anhui/1/2013(H7N9) it was 1140 ± 260 nM; in [6] it was 1590 ± 120 nM. In addition, the IC90 was 910 ± 20 nM in [7]; 1090 ± 80 nM in the series on A/Germany/N/1949 (H10N7); 940 ± 20 nM with A/England/1/1956 (H11N6); 1510 ± 870 nM in [8]; 950 ± 10 nM in series [9]; 980 ± 20 nM with A/Tex/131 (H3N2). This molecule gave an IC90 in series [10] of 880 ± 20 nM. For the same molecule, the “body weight change (in words)” value in series [4] was “lost less weight”. For the same molecule, the “reduction in the virus titer in the lung compared with controls” value in series [4] is on record as ~ 2 log. Besides, in series [4], the “virus titer in the lungs” value is recorded as 2.9×10^3 PFU/mL. Also, the “luciferase activity (vRNP activity)” value at vRNP activity was “notable and dose-dependent reduction in luciferase activity”. In series [11], the “vRNA expression (FISH)” value is given as “significant reduction in vRNA expression”. The “viral protein expression (western blotting)” value in the series with viral protein expression was “reduction in viral protein expression”. On NP, the “NP localization in virus-infected HeLa cells” value is given as “nuclear rather than cytoplasmic localization of NP”. Also, the “binding of wild-type NP-Flag to RK424 beads” value at NP-Flag is listed as “bound to RK424 beads but not to control beads”. Further, at NP-RNA interaction, the “RNA binding, less than control samples” value is reported as around 50%. In addition, at NP-NP interaction, the “binding of NP-HA to NP-mRFP-Flag beads” value is listed as “inhibited the binding of NP-HA to NP-mRFP-Flag beads in a dose-dependent manner”. Further, the “rate of NP oligomerization” value in series [12] is given as “dose-dependent reduction in the rate of oligomerization”. Further, the “mRFP fluorescence intensity in the nucleus, % of buffer-treated cells” value in [2] (2 μM) worked out at 76%; in series [2] (10 μM), 134%. Besides, the “binding of CRM1 to NP-Flag beads” value on CRM1 binding to NP was “binding was inhibited”. Further, the “effect on viral replication when added prior to virus inoculation” value in series [13] is reported as “did not interfere with viral replication”. In addition, the “antiviral effect by time of addition” value in series [14] is reported as “prominent antiviral effect at an early stage in the virus life cycle”. For the same molecule, the “Cmax relative to the in vitro IC50 concentration” value (Cmax 39200 ng/mL vs 162.7 ng/mL) is reported as “more than 200 times”. Also, under “mice, 10 mg/kg”, the “bioavailability via the oral route relative to the intraperitoneal route, lower by” value is 50%. Besides, the “free drug maximum concentration (Cfree max)” value reads like this: (mice, intravenous 1 mg/kg, plasma) 11.4 ng/mL; (mice, oral route 10 mg/kg) 46.4 ng/mL; (mice, context intraperitoneal 10 mg/kg) 156.8 ng/mL. The “drug free from plasma protein” value in series [15] was 0.4%. In series [15] (50 μM, 37°C 30 min), this molecule showed a plasma protein binding of 99.6%. The distribution volume (Vd) (usually a proportionality between amount in the body and measured concentration, not a real space) in “in vivo” is 0.583 L/kg. Also, the maximum concentration (Cmax) (as a rule, the maximum level reached in the sampled fluid or tissue) in the series “in vivo” (ip) was determined as 39200 ng/mL. The CC50 in the series “in vitro” was at least 50000 nM.
